These results are taken from patent EP4477653A1 (Perha Pharmaceuticals, priority 2023, dated 2024).

The target in the assay is T1, human recombinant A3AR (expressed in HEK-293 cells) (Homo sapiens, UniProt P0DMS8).
T1 construct: host or cells: HEK-293 cells
T1 sequence (P0DMS8 1-318): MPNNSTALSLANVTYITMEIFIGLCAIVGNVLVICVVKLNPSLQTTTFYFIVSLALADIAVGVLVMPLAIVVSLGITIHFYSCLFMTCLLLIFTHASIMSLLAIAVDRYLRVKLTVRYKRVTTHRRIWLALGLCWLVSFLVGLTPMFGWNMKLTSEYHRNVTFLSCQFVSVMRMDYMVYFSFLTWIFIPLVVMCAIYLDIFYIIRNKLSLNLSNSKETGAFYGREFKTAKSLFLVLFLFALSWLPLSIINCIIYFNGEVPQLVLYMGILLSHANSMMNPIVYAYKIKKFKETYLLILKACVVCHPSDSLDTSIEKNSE
Description: Adenosine receptors antagonism assay (Eurofins), [125I]-AB-MECA radioligand competition. The format is binding. Conditions: [125I]-AB-MECA 0.15 nM, r.t., 120 min; IC50 from dose-response curves; read-out: Potency Class A3AR. Background: Displacement assays read how much labelled ligand stays bound in the presence of the test substance.

Molecules are shown by their SMILES.

On to `CCC(CC)Nc1cc(NCc2ccccc2O)c2nnc(C(C)C)n2n1` [compound 40, 2-[[[6-(1-ethylpropylamino)-3-isopropyl-[1,2,4]triazolo[4,3-b]pyridazin-8-yl]amino]methyl]phenol], for which the IC50 lay within 1 to 10 nM. The same measure for `CCC(CC)Nc1cc(NCc2cccc(O)c2)c2nnc(C(C)C)n2n1` [compound 41, 3-[[[6-(1-ethylpropylamino)-3-isopropyl-[1,2,4]triazolo[4,3-b]pyridazin-8-yl]amino]methyl]phenol]: 1 to 10 nM. As to `CCC(CC)Nc1cc(NCc2ccc(O)cc2)c2nnc(C(C)C)n2n1` [compound 42, 4-[[[6-(1-ethylpropylamino)-3-isopropyl-[1,2,4]triazolo[4,3-b]pyridazin-8-yl]amino]methyl]phenol], the IC50 is 1 to 10 nM. The result for `CC(C)c1nnc2c(NCc3ccccc3O)cc(N[C@@H]3CCCOC3)nn12` [compound 43, 2-[[[3-isopropyl-6-[[(3R)-tetrahydropyran-3-yl]amino]-[1,2,4]triazolo[4,3-b]pyridazin-8-yl]amino]methyl]phenol] reads 10 to 100 nM; that for `CC(C)c1nnc2c(NCc3ccccc3O)cc(NC3CCOCC3)nn12` [compound 44, 2-[[[3-isopropyl-6-(tetrahydropyran-4-ylamino)-[1,2,4]triazolo[4,3-b]pyridazin-8-yl]amino]methyl]phenol], 10 to 100 nM; that for `CCC(CC)Nc1cc(Nc2ccccc2)c2nnc(C(C)C)n2n1` [compound 45, N6-(1-ethylpropyl)-3-isopropyl-N8-phenyl-[1,2,4]triazolo[4,3-b]pyridazine-6,8-diamine], 1 to 10 nM.

In the case of `CCC(CC)Nc1cc(Nc2ccccn2)c2nnc(C(C)C)n2n1` [compound 46, N6-(1-ethylpropyl)-3-isopropyl-N8-(2-pyridyl)-[1,2,4]triazolo[4,3-b]pyridazine-6,8-diamine], the IC50 is below 1 nM.

As to `CCC(CC)Nc1cc(Nc2cccnc2)c2nnc(C(C)C)n2n1` [compound 47, N6-(1-ethylpropyl)-3-isopropyl-N8-(3-pyridyl)-[1,2,4]triazolo[4,3-b]pyridazine-6,8-diamine], the IC50 is below 1 nM. For the compound `CCC(CC)Nc1cc(Nc2ccncc2)c2nnc(C(C)C)n2n1` [compound 48, N6-(1-ethylpropyl)-3-isopropyl-N8-(4-pyridyl)-[1,2,4]triazolo[4,3-b]pyridazine-6,8-diamine], the IC50 is 1 to 10 nM. Take `CCC(CC)Nc1cc(NCc2ccncc2)c2nnc(C(C)C)n2n1` [compound 49, N6-(1-ethylpropyl)-3-isopropyl-N8-(4-pyridylmethyl)-[1,2,4]triazolo[4,3-b]pyridazine-6,8-diamine]: the IC50 lay within 1 to 10 nM.

For `CCC(CC)Nc1cc(NCc2cccnc2)c2nnc(C(C)C)n2n1` [compound 50, N6-(1-ethylpropyl)-3-isopropyl-N8-(3-pyridylmethyl)-[1,2,4]triazolo[4,3-b]pyridazine-6,8-diamine], the IC50 was 1 to 10 nM.

For `CCC(CC)Nc1cc(NCc2ccccn2)c2nnc(C(C)C)n2n1` [compound 51, N6-(1-ethylpropyl)-3-isopropyl-N8-(2-pyridylmethyl)-[1,2,4]triazolo[4,3-b]pyridazine-6,8-diamine], the IC50 fell in the range of 1 to 10 nM.

In the case of `CC(C)c1nnc2c(NCc3ccccn3)cc(NC(C)(C)C)nn12` [compound 52, N6-tert-butyl-3-isopropyl-N8-(2-pyridylmethyl)-[1,2,4]triazolo[4,3-b]pyridazine-6,8-diamine], the IC50 was in the range of 1 to 10 nM. As for `CC(C)c1nnc2c(NCc3ccccn3)cc(NC3CC4(CCC4)C3)nn12` [compound 53, 3-isopropyl-N8-(2-pyridylmethyl)-N6-spiro[3.3]heptan-2-yl-[1,2,4]triazolo[4,3-b]pyridazine-6,8-diamine], the IC50 was in the range of 1 to 10 nM. For the compound `CC(C)c1nnc2c(NCc3ccccn3)cc(NC3CC(F)(F)C3)nn12` [compound 54, N6-(3,3-difluorocyclobutyl)-3-isopropyl-N8-(2-pyridylmethyl)-[1,2,4]triazolo[4,3-b]pyridazine-6,8-diamine], the IC50 fell in the range of 10 to 100 nM. The result for `CC(C)c1nnc2c(NCc3ccccn3)cc(NC3CCC(F)(F)CC3)nn12` [compound 55, N6-(4,4-difluorocyclohexyl)-3-isopropyl-N8-(2-pyridylmethyl)-[1,2,4]triazolo[4,3-b]pyridazine-6,8-diamine] reads 10 to 100 nM. The result for `CC(C)c1nnc2c(NCc3ccccn3)cc(NCc3ccccc3)nn12` [compound 56, N6-benzyl-3-isopropyl-N8-(2-pyridylmethyl)-[1,2,4]triazolo[4,3-b]pyridazine-6,8-diamine] reads 1 to 10 nM.

Turning to `CCC(CC)Nc1cc(NCc2ccccn2)c2nncn2n1` [compound 57, N6-(1-ethylpropyl)-N8-(2-pyridylmethyl)-[1,2,4]triazolo[4,3-b]pyridazine-6,8-diamine], the IC50 lay within 100 to 1000 nM. For `CCC(CC)Nc1cc(NCc2ccccn2)c2nnc(C)n2n1` [compound 58, N6-(1-ethylpropyl)-3-methyl-N8-(2-pyridylmethyl)-[1,2,4]triazolo[4,3-b]pyridazine-6,8-diamine], the IC50 is 10 to 100 nM. The same measure for `CCc1nnc2c(NCc3ccccn3)cc(NC(CC)CC)nn12` [compound 59, 3-ethyl-N6-(1-ethylpropyl)-N8-(2-pyridylmethyl)-[1,2,4]triazolo[4,3-b]pyridazine-6,8-diamine]: 1 to 10 nM; for `CCCc1nnc2c(NCc3ccccn3)cc(NC(CC)CC)nn12` [compound 60, N6-(1-ethylpropyl)-3-propyl-N8-(2-pyridylmethyl)-[1,2,4]triazolo[4,3-b]pyridazine-6,8-diamine]: 10 to 100 nM.

On to `CCC(CC)Nc1cc(NCc2ccccn2)c2nnc(C(C)(C)C)n2n1` [compound 61, 3-tert-butyl-N6-(1-ethylpropyl)-N8-(2-pyridylmethyl)-[1,2,4]triazolo[4,3-b]pyridazine-6,8-diamine], for which the IC50 is 10 to 100 nM. In the case of `CCC(CC)Nc1cc(NCc2ccccn2)c2nnc(C3CC3)n2n1` [compound 62, 3-cyclopropyl-N6-(1-ethylpropyl)-N8-(2-pyridylmethyl)-[1,2,4]triazolo[4,3-b]pyridazine-6,8-diamine], the IC50 was in the range of 1 to 10 nM. Turning to `CCC(CC)Nc1cc(NCc2ccccn2)c2nnc(C3CCC3)n2n1` [compound 63, 3-cyclobutyl-N6-(1-ethylpropyl)-N8-(2-pyridylmethyl)-[1,2,4]triazolo[4,3-b]pyridazine-6,8-diamine], the IC50 lay in the range of 1 to 10 nM.

Turning to `CCC(CC)Nc1cc(NCc2ccccn2)c2nnc(C3CCCC3)n2n1` [compound 64, 3-cyclopentyl-N6-(1-ethylpropyl)-N8-(2-pyridylmethyl)-[1,2,4]triazolo[4,3-b]pyridazine-6,8-diamine], the IC50 is 10 to 100 nM. For the compound `CCC(CC)Nc1cc(NCc2ccccn2)c2nnc(C3CCCCC3)n2n1` [compound 65, 3-cyclohexyl-N6-(1-ethylpropyl)-N8-(2-pyridylmethyl)-[1,2,4]triazolo[4,3-b]pyridazine-6,8-diamine], the IC50 lay within 100 to 1000 nM. For the compound `CCC(CC)Nc1cc(NCc2ccccn2)c2nnc(-c3ccccc3)n2n1` [compound 66, N6-(1-ethylpropyl)-3-phenyl-N8-(2-pyridylmethyl)-[1,2,4]triazolo[4,3-b]pyridazine-6,8-diamine], the IC50 fell in the range of 10 to 100 nM. As for `CCC(CC)Nc1cc(NCc2ccccn2)c2nnc(C(C)CC)n2n1` (stereo not drawn) [compound 67, N6-(1-ethylpropyl)-N8-(2-pyridylmethyl)-3-sec-butyl-[1,2,4]triazolo[4,3-b]pyridazine-6,8-diamine], the IC50 lay in the range of 1 to 10 nM. For the compound `CCC(CC)Nc1cc(NCc2ccccn2)c2nnc(C(CC)CC)n2n1` [compound 68, N6,3-bis(1-ethylpropyl)-N8-(2-pyridylmethyl)-[1,2,4]triazolo[4,3-b]pyridazine-6,8-diamine], the IC50 is 1 to 10 nM. The same measure for `CCC(CC)Nc1cc(NCc2ccccn2)c2nnc(CC(C)C)n2n1` [compound 69, N6-(1-ethylpropyl)-3-isobutyl-N8-(2-pyridylmethyl)-[1,2,4]triazolo[4,3-b]pyridazine-6,8-diamine]: 10 to 100 nM; for `CCC(CC)Nc1cc(NCc2ccccn2)c2nnc(-c3ccccn3)n2n1` [compound 70, N6-(1-ethylpropyl)-3-(2-pyridyl)-N8-(2-pyridylmethyl)-[1,2,4]triazolo[4,3-b]pyridazine-6,8-diamine]: 100 to 1000 nM. Consider `CCC(CC)Nc1cc(NCc2ccccn2)c2nnc(-c3cccnc3)n2n1` [compound 71, N6-(1-ethylpropyl)-3-(3-pyridyl)-N8-(2-pyridylmethyl)-[1,2,4]triazolo[4,3-b]pyridazine-6,8-diamine], for which the IC50 lay in the range of 10 to 100 nM. The same measure for `CCC(CC)Nc1cc(NCc2ccccn2)c2nnc(-c3ccncc3)n2n1` [compound 72, N6-(1-ethylpropyl)-3-(4-pyridyl)-N8-(2-pyridylmethyl)-[1,2,4]triazolo[4,3-b]pyridazine-6,8-diamine]: 10 to 100 nM; for `CCC(CC)Nc1cc(NCc2ccccc2OC)c2nnc(C(C)C)n2n1` [compound 73, N6-(1-ethylpropyl)-3-isopropyl-N8-[(2-methoxyphenyl)methyl]-[1,2,4]triazolo[4,3-b]pyridazine-6,8-diamine]: 1 to 10 nM; for `CC[C@H](CO)Nc1cc(NCc2ccc(N)cc2)c2nnc(C(C)C)n2n1` [compound 74, (2R)-2-[[8-[(4-aminophenyl)methylamino]-3-isopropyl-[1,2,4]triazolo[4,3-b]pyridazin-6-yl]amino]butan-1-ol]: 10 to 100 nM. The same measure for `CCC(CC)Nc1cc(NCc2ccc(N)cc2)c2nnc(C(C)C)n2n1` [compound 75, N8-[(4-aminophenyl)methyl]-N6-(1-ethylpropyl)-3-isopropyl-[1,2,4]triazolo[4,3-b]pyridazine-6,8-diamine]: 1 to 10 nM.
